Measured values reported in patent publication US12448388B2, “PRMT5 inhibitors and uses thereof” (Gilead Sciences, Inc., priority 2023, dated 2025).
Like-named read-outs stand apart in the source and are kept apart here.

How the values were obtained:
[1] = tested on: HCT116 MTAP-deleted cell lines; experiment: Cell viability assay (CellTiter-Glo, 7 days), HCT116 MTAP-deleted; type: cell-based; settings: Homo sapiens, HCT-116, HCT116 MTAP-deleted, class symbols, read-out: CC50
Method in brief: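 CC50 values come from 7-day CellTiter-Glo viability measurements on cells exposed to a dose range of PRMT5 inhibitors dispensed from DMSO stocks.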

[2] = tested on: Symmetric Di-methyl Arginine (SDMA) signal (PRMT5 inhibition) in HCT116 MTAP-deleted cells; experiment: Symmetric di-methyl arginine image-based high content screen assay (SDMA assay), HCT116 MTAP-deleted; type: cell-based; settings: for EC50: Homo sapiens, HCT-116, HCT116 MTAP-deleted, class symbols
Method in brief: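 HCT116 WT and MTAP-deleted cells (800/well, RPMI 1640 + 10% FBS) treated with compound 3 days at 37 °C; formalin-fixed, stained with anti-SDMA antibody/Alexa 488 plus DAPI. Mean SDMA intensity per DAPI-defined cell imaged; EC50 from 4-parameter logistic fit.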

[3] = HCT116 WT versus HCT116 MTAP-deleted
[4] = HCT116 WT vs HCT116 MTAP-deleted

Structure (SMILES) | CC50 ([1]; cell viability) [nM] | EC50 selectivity [2, 3] | EC50 [2] [nM] | CC50 ([1]; cell viability assay) [nM] | EC50 selectivity [2, 4]
C[C@H]1CN(C(=O)c2cc3c(cc2Cl)nc(N)c2cncn23)[C@@H](c2ccc(C(F)(F)F)cn2)CO1 [Ff-138, (4-amino-7-chloroimidazo[1,5-a]quinoxalin-8-yl)((2S,5S)-2-methyl-5-(5-(trifluoromethyl)pyridin-2-yl)morpholino)methanone] | < 100 | 20 | ≤ 1 |  | 
CN(C(=O)c1cc2c(cc1F)nc(N)c1cncn12)[C@@H]1COc2cc(N3CCOCC3)ccc21 [Ff-144, (S)-4-amino-7-fluoro-N-methyl-N-(6-morpholino-2,3-dihydrobenzofuran-3-yl)imidazo[1,5-a]quinoxaline-8-carboxamide] | < 100 | 157 | 1 to 5 |  | 
C[C@H]1CN(C(=O)c2cc3c(cc2F)nc(N)c2cncn23)[C@H]2c3cc(F)c(Br)cc3C[C@H]2O1 [Ff-165, (4-amino-7-fluoroimidazo[1,5-a]quinoxalin-8-yl)((2S,4aS,9aR)-7-bromo-6-fluoro-2-methyl-2,3,9,9a-tetrahydroindeno[2,1-b][1,4]oxazin-4(4aH)-yl)methanone] | < 100 | 43 | ≤ 1 |  | 
Nc1nc2cc(F)c(C(=O)N3CCO[C@@H]4Cc5cc(C(F)F)ccc5[C@@H]43)cc2n2cncc12 [Ff-167, (4-amino-7-fluoroimidazo[1,5-a]quinoxalin-8-yl)((4aS,9aR)-7-(difluoromethyl)-2,3,9,9a-tetrahydroindeno[2,1-b][1,4]oxazin-4(4aH)-yl)methanone] | < 100 | 44 | 1 to 5 |  | 
C[C@H]1CN(C(=O)c2cc3c(cc2F)nc(N)c2cncn23)[C@H]2c3cc(F)c(C4CC4)cc3C[C@H]2O1 [Ff-201, (4-amino-7-fluoroimidazo[1,5-a]quinoxalin-8-yl)((2S,4aS,9aR)-7-cyclopropyl-6-fluoro-2-methyl-2,3,9,9a-tetrahydroindeno[2,1-b][1,4]oxazin-4(4aH)-yl)methanone] | < 100 | 58 | 1 to 5 |  | 
Nc1nc2cc(F)c(C(=O)N(Cc3ccc(C(F)(F)F)cc3F)C34CC(C3)C4)cc2n2cncc12 [Ff-210, 4-amino-N-(bicyclo[1.1.1]pentan-1-yl)-7-fluoro-N-(2-fluoro-4-(trifluoromethyl)benzyl)imidazo[1,5-a]quinoxaline-8-carboxamide] | < 100 | 45 | ≤ 1 |  | 
CN(C(=O)c1cc2c(cc1F)nc(N)c1cncn12)[C@@H]1COc2cc(-c3cnn(C(F)F)c3)ccc21 [Ff-213, (S)-4-amino-N-(6-(1-(difluoromethyl)-1H-pyrazol-4-yl)-2,3-dihydrobenzofuran-3-yl)-7-fluoro-N-methylimidazo[1,5-a]quinoxaline-8-carboxamide] | < 100 | 153 | 1 to 5 |  | 
CN(C(=O)c1cc2c(cc1F)nc(N)c1cncn12)[C@@H]1COc2cc(-c3cnn(C4CC4)c3)ccc21 [Ff-215, (S)-4-amino-N-(6-(1-cyclopropyl-1H-pyrazol-4-yl)-2,3-dihydrobenzofuran-3-yl)-7-fluoro-N-methylimidazo[1,5-a]quinoxaline-8-carboxamide] | < 100 | 224 | 1 to 5 |  | 
Cn1cc(N(Cc2ccc(C(F)(F)F)cc2F)C(=O)c2ccc3nc(N)c4cncn4c3c2)cn1 [Ff-278, 4-amino-N-(2-fluoro-4-(trifluoromethyl)benzyl)-N-(1-methyl-1H-pyrazol-4-yl)imidazo[1,5-a]quinoxaline-8-carboxamide] | < 100 | 47 | 1 to 5 |  | 
CN(C(=O)c1cc2c(cc1F)nc(N)c1cncn12)[C@@H]1COCc2cc(-c3cnn(C(F)(F)F)c3)ccc21 [Ff-279, (S)-4-amino-7-fluoro-N-methyl-N-(7-(1-(trifluoromethyl)-1H-pyrazol-4-yl)isochroman-4-yl)imidazo[1,5-a]quinoxaline-8-carboxamide] | < 100 | 60 | ≤ 1 |  | 
CN(C(=O)c1cc2c(cc1F)nc(N)c1cncn12)[C@@H]1COCc2cc(-c3ccn(C(F)(F)F)n3)ccc21 [Ff-280, (S)-4-amino-7-fluoro-N-methyl-N-(7-(1-(trifluoromethyl)-1H-pyrazol-3-yl)isochroman-4-yl)imidazo[1,5-a]quinoxaline-8-carboxamide] | < 100 | 118 | 1 to 5 |  | 
Nc1nc2cc(Cl)c(C(=O)N3CCOC[C@@H]3c3ccc(C(F)(F)F)cc3)cc2n2cncc12 [Ff-289, (S)-(4-amino-7-chloroimidazo[1,5-a]quinoxalin-8-yl)(3-(4-(trifluoromethyl)phenyl)morpholino)methanone] | < 100 | 88 | ≤ 1 |  | 
Cc1ncc2c(N)nc3cc(F)c(C(=O)N(C)[C@@H]4COCc5nc(C(F)(F)F)ccc54)cc3n12 [Ff-304, (S)-4-amino-7-fluoro-N,1-dimethyl-N-(2-(trifluoromethyl)-5,8-dihydro-6H-pyrano[3,4-b]pyridin-5-yl)imidazo[1,5-a]quinoxaline-8-carboxamide] | < 100 | 127 | 1 to 5 |  | 
CN(C(=O)c1cc2c(cc1F)nc(N)c1cncn12)[C@@H]1COc2cc(-n3cnc(C(F)(F)F)n3)ccc21 [Ff-324, (S)-4-amino-7-fluoro-N-methyl-N-(6-(3-(trifluoromethyl)-1H-1,2,4-triazol-1-yl)-2,3-dihydrobenzofuran-3-yl)imidazo[1,5-a]quinoxaline-8-carboxamide] | < 100 | 53 | 1 to 5 |  | 
CN(C(=O)c1cc2c(cc1F)nc(N)c1cncn12)[C@@H]1COc2cc(-n3cnc(C(F)(F)F)c3)ccc21 [Ff-325, (S)-4-amino-7-fluoro-N-methyl-N-(6-(4-(trifluoromethyl)-1H-imidazol-1-yl)-2,3-dihydrobenzofuran-3-yl)imidazo[1,5-a]quinoxaline-8-carboxamide] | < 100 | 447 | ≤ 1 |  | 
Nc1nc2cnc(C(=O)N3CCC[C@@H]4Oc5cc(OC(F)(F)F)c(F)cc5[C@@H]43)cc2n2cncc12 [Ff-378, (4-aminoimidazo[1,5-a]pyrido[3,4-e]pyrazin-8-yl)((4aS,9bS)-8-fluoro-7-(trifluoromethoxy)-3,4,4a,9b-tetrahydrobenzofuro[3,2-b]pyridin-1(2H)-yl)methanone] |  |  | ≤ 1 | < 100 | 106
Nc1nc2ccc(C(=O)N(CC3CC3)[C@@H]3COc4cc(C(F)(F)F)ccc43)cc2n2cncc12 [Ff-407, (S)-4-amino-N-(cyclopropylmethyl)-N-[(3S)-6-(trifluoromethyl)-2,3-dihydrobenzofuran-3-yl]imidazo[1,5-a]quinoxaline-8-carboxamide] |  |  | ≤ 1 | < 100 | 65
Nc1nc2ccc(C(=O)N(Cc3ccc(C(F)(F)F)cc3F)C3COC3)cc2n2cncc12 [Ff-410, 4-amino-N-[[2-fluoro-4-(trifluoromethyl)phenyl]methyl]-N-(oxetan-3-yl)imidazo[1,5-a]quinoxaline-8-carboxamide] |  |  | > 5 | 100 to 1000 | 453
CC(C)N(Cc1ccc(C(F)(F)F)cc1F)C(=O)c1ccc2nc(N)c3cncn3c2c1 [Ff-412, 4-amino-N-[[2-fluoro-4-(trifluoromethyl)phenyl]methyl]-N-isopropyl-imidazo[1,5-a]quinoxaline-8-carboxamide] |  |  | ≤ 1 | < 100 | 252
Nc1nc2cc(F)c(C(=O)N3CCC[C@@H]4Oc5c(ccc(C(F)(F)F)c5F)[C@@H]43)cc2n2cncc12 [Ff-501, (4-amino-7-fluoroimidazo[1,5-a]quinoxalin-8-yl)((4aS,9bS)-6-fluoro-7-(trifluoromethyl)-3,4,4a,9b-tetrahydrobenzofuro[3,2-b]pyridin-1(2H)-yl)methanone] |  |  | ≤ 1 | < 100 | 115
Cc1ncn2c1c(N)nc1cnc(C(=O)N(C)[C@@H]3COc4cc(C(F)(F)F)ccc43)cc12 [Ff-502, (S)-4-amino-N,3-dimethyl-N-(6-(trifluoromethyl)-2,3-dihydrobenzofuran-3-yl)imidazo[1,5-a]pyrido[3,4-e]pyrazine-8-carboxamide] |  |  | 1 to 5 | < 100 | 112
CN(C(=O)c1cc2c(cc1F)nc(N)c1cncn12)[C@@H]1COc2cc(C#CC3(C)COC3)ccc21 [Ff-516, (S)-4-amino-7-fluoro-N-methyl-N-(6-((3-methyloxetan-3-yl)ethynyl)-2,3-dihydrobenzofuran-3-yl)imidazo[1,5-a]quinoxaline-8-carboxamide] |  |  | 1 to 5 | < 100 | 337
Cc1cn(-c2ccc3c(c2)OC[C@H]3N(C)C(=O)c2cc3c(cc2F)nc(N)c2cncn23)cn1 [Ff-544, (S)-4-amino-7-fluoro-N-methyl-N-(6-(4-methyl-1H-imidazol-1-yl)-2,3-dihydrobenzofuran-3-yl)imidazo[1,5-a]quinoxaline-8-carboxamide] |  |  | 1 to 5 | < 100 | 109
CN(C(=O)c1cc2c(cc1F)nc(N)c1cncn12)[C@@H]1COc2cc(-n3cc(C(F)(F)F)cn3)ccc21 [Ff-545, (S)-4-amino-7-fluoro-N-methyl-N-(6-(4-(trifluoromethyl)-1H-pyrazol-1-yl)-2,3-dihydrobenzofuran-3-yl)imidazo[1,5-a]quinoxaline-8-carboxamide] |  |  | 1 to 5 | < 100 | 157
